From ChEMBL document CHEMBL4145670, “A Bioactive Resveratrol Trimer from the Stem Bark of the Sri Lankan Endemic Plant Vateria copallifera” (J Nat Prod, 2018)
Calls of active or inactive are those of the source. No cut-off for these calls is given here.

Tests used:
MCF7 = test: cells; conditions: Homo sapiens, MCF7, 48 h, read-out: GI
Description: Growth inhibition of human MCF7 cells at 147.2 uM after 48 hrs by methylene blue staining based assay relative to control

[1] = target: Cholinesterase (Homo sapiens) (UniProt P06276); conditions: 10 ug/ml
Description: Inhibition of BChE (unknown origin) at 10 ug/ml using butyrylthiocholine iodide as substrate pretreated for 15 mins followed by substrate addition and measured by DTNB reagent based assay relative to control

HCT-116 = test: cells; conditions: Homo sapiens, HCT-116, 48 h, read-out: GI
Description: Growth inhibition of human HCT116 cells at 147.2 uM after 48 hrs by methylene blue staining based assay relative to control

Homo sapiens [2] = organism: Homo sapiens; conditions: 147.2 uM
Description: Inhibition of alpha-chymotrypsin (unknown origin) at 147.2 uM using N-succinyl-L-phenylalanine-p-nitroanilide as substrate pretreated for 25 mins followed by substrate addition relative to control

[3] = target: Cholinesterase (Homo sapiens) (UniProt P06276); conditions: 14.7 uM
Description: Inhibition of BChE (unknown origin) at 14.7 uM using butyrylthiocholine iodide as substrate pretreated for 15 mins followed by substrate addition and measured by DTNB reagent based assay

Homo sapiens [4] = organism: Homo sapiens; conditions: 44.1 uM
Description: Inhibition of elastase (unknown origin) at 44.1 uM using N-succinyl-Ala-Ala-Ala-p-nitroanilide as substrate pretreated for 25 mins followed by substrate addition relative to control

HeLa = test: cells; conditions: Homo sapiens, 48 h, read-out: GI
Description: Growth inhibition of human HeLa cells at 147.2 uM after 48 hrs by methylene blue staining based assay relative to control

HepG2 = test: cells; conditions: Homo sapiens, HepG2, 48 h, read-out: GI
Description: Growth inhibition of human HepG2 cells at 147.2 uM after 48 hrs by methylene blue staining based assay relative to control

Homo sapiens [5] = organism: Homo sapiens; conditions: 1.5 uM
Description: Inhibition of GST (unknown origin) at 1.5 uM using CDNB as substrate relative to control

PC-12 = test: cells; conditions: Rattus norvegicus, PC-12, 3 h, read-out: Activity
SK-MEL-5 = test: cells; conditions: Homo sapiens, SK-MEL-5, 48 h, read-out: GI
Description: Growth inhibition of human SK-MEL-5 cells at 147.2 uM after 48 hrs by methylene blue staining based assay relative to control

Chain of Cholinesterase (Homo sapiens) (P06276 whole entry): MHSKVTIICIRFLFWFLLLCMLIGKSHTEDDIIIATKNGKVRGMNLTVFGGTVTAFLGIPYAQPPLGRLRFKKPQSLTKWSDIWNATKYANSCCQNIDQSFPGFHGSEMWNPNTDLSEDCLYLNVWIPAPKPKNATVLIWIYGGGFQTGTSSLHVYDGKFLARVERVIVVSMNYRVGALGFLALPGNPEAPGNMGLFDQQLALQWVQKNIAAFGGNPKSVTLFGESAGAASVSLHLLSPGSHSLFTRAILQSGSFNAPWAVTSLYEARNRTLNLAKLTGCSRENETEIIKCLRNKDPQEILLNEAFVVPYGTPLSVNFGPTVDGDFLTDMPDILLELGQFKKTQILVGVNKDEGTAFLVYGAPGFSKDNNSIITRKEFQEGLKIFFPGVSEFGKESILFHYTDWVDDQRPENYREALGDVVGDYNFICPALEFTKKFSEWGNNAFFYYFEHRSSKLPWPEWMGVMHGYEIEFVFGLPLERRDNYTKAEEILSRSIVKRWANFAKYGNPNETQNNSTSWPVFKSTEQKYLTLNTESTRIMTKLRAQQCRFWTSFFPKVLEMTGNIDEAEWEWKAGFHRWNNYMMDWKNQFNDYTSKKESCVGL

Q: What does the source list for `Oc1ccc(-c2oc3cc(O)c4c5c3c2-c2cc(O)cc(O)c2[C@H](c2ccc(O)cc2)[C@@H]5[C@H](c2ccc(O)cc2)[C@@H]4c2cc(O)cc(O)c2)cc1`?
A: inhibition of growth at 147.2 µM (MCF7): < 50%; inhibition [1]: 19.7%; inhibition of growth at 147.2 µM (HCT-116): < 50%; inhibition (Homo sapiens [2]): 55.7%; inhibition [3]: inactive; inhibition (Homo sapiens [4]): 10.2%; inhibition of growth at 147.2 µM (HeLa): < 50%; inhibition of growth at 147.2 µM (HepG2): < 50%; inhibition (Homo sapiens [5]): 34.7%; viability at 1.5 µM (PC-12): 88.3%; inhibition of growth at 147.2 µM (SK-MEL-5): < 50%
